For one experiment, the target named is T1, full-length human Hpk1 (Homo sapiens, UniProt Q92918).
T1 construct: A recombinant fusion protein consisting of full-length human Hpk1; GST (N)
As to the kind of experiment: HPK1 kinase assay (ADP Glo Kinase Assay). It counts as biochemical. The note with it: full-length human GST-Hpk1, ADP Glo, 75 μM ATP; read-out: Hpk1 biochemical (pIC50) (converted). The procedure:
Pharmacological Part HPK1 Kinase Assay
A recombinant fusion protein consisting of full-length human Hpk1 with an N-terminal Glutatione S-transferase (GST) tag was produced in a baculovirus/insect cell expression system. GST-Hpk1 protein was purified from cell lysates by glutathione sepharose affinity chromatography. Kinase inhibition was determined using the ADP Glo™ Kinase Assay kit (Promega, V9101). Test compounds were prepared by serial dilution in dimethyl sulfoxide (DMSO) and 0.1 μl of each dilution was spotted onto a 384-well white Proxiplate (Perkin Elmer, 6008289). 8 μl of kinase assay buffer (40 mM Tris pH 7.5, 2 mM dithiothreitol (DTT), 0.05% Bovine Serum Albumin, 5 mM MgCl2) containing Hpk1 protein was transferred to each well and incubated for 30-45 minutes at room temperature. The enzymatic reaction was started by adding 2 μl of kinase assay buffer containing 75 μM ATP. After 120 minutes, the reaction was stopped by adding 3 μl of ADP Glo™ reagent (Promega, V9101) and incubating 45 minutes at room temperature.
For orientation: ADP-Glo first removes unused ATP, then detects ADP through luciferase.

The target of the next experiment is Hpk1 (Homo sapiens, UniProt Q92918). As to the kind of experiment: SLP76 phosphorylation assay (SLP76 pS376 in lysates of HEK293 cells engineered to express Hpk1 and SLP76). It counts as cell-based. The note with it: HEK293 cells expressing Hpk1 and SLP76, 4 hours incubation; read-out: pSLP76 (HEK293) (pIC50) (converted). How it is done:
SLP76 Phosphorylation Assay
Hpk1 inhibition in cells was determined by detection of SLP76 phosphorylation at S376 in lysates from HEK293 cells engineered to express Hpk1 and SLP76. Serial dilutions of test compounds were prepared in cell culture medium and 20 μl was transferred into each well of a 96-well plate containing HEK293 cells in 180 μl of culture medium. After incubation for 4 hours at 37° C./5% CO2, the culture medium was removed, plates were put on ice and cells washed with cold Minimal Essential Medium before lysing in 90 μl of cold Mammalian Protein Extraction Reagent (Thermo Scientific, 78501) for 30 minutes on ice. The cell lysates were transferred to another 96-well plate, centrifuged 10 minutes at 3000 rcf (4° C.) and 30 μl transferred to a 96-well High-bind plate (MSD, L15XB-3). After coating overnight at 4° C., the cell lysate was removed, wells were washed with base buffer (TBS, 0.2% Tween-20), and blocking solution (base buffer containing 3% MSD blocker A) was added to each well for 1 hour at room temperature. The blocking solution was removed, the wells were washed with base buffer, and detection antibody (SLP76 pS376) was added in 25 μl base buffer containing 1% MSD blocker A to each well. After a 2 h incubation at room temperature, the detection antibody was removed, wells were washed four times with base buffer, 25 μl SULFO-TAG labeled goat anti-rabbit secondary antibody (MSD, R32AB-1) in base buffer containing 1% MSD blocker A was added to each well and left for 1 hour at room temperature. Wells were washed 4 times with base buffer, 150 μl Read Buffer T was added to each well, and the plates were read in a Mesoscale plate reader (MSD). IC50 values were determined by curve-fitting the electrochemiluminescent signals obtained from the lysates of HEK293 cells expressing Hpk1 and SLP76 treated with test compounds at various concentrations minus the signal obtained from HEK293 cells expressing SLP76 only.

Some results are limits rather than exact numbers.

Chain of Hpk1 (Q92918 whole entry): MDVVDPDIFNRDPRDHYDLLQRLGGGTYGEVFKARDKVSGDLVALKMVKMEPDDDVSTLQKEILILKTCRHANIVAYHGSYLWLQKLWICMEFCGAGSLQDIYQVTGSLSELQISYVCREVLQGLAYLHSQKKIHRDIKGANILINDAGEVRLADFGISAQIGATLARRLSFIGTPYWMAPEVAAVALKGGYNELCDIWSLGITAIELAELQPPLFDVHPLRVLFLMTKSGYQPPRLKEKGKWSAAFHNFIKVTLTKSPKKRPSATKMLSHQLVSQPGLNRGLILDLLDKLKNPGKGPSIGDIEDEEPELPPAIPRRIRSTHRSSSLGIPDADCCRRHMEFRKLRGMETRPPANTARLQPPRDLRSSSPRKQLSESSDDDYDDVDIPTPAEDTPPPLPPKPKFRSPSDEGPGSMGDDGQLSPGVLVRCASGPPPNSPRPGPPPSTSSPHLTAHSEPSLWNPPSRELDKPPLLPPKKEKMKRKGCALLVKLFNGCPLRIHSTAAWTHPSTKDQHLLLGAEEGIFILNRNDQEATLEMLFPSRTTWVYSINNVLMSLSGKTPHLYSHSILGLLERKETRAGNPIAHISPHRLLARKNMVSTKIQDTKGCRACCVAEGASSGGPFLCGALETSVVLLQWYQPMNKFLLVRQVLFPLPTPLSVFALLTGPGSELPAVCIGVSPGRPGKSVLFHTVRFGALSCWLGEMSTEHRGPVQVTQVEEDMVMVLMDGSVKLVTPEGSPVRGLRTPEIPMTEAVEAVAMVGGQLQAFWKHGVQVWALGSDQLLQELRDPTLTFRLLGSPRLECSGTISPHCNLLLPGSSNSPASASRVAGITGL
T1 sequence (Q92918 whole entry, the tested form may be a part): as the sequence (Q92918 whole entry) above

Turning to `C[C@H]1CCN[C@@H]1c1cc(-c2cnc(N)c(-c3ccncc3)c2)ccc1C1CCOCC1` (racemic) [Co. 9], the IC50 was 42.7 nM on full-length human Hpk1 and 2140 nM on Hpk1.

Regarding `C[C@@H]1CCN[C@@H]1c1cc(-c2cnc(N)c(-c3ccncc3)c2)ccc1C1CCOCC1` (racemic) [Co. 10], the IC50 on full-length human Hpk1 is 6.61 nM; at Hpk1, 282 nM. For `Nc1ncc(-c2ccc(C3CCOCC3)c([C@@H]3CC4(CC4)CN3)c2)cc1-c1ccnc(F)c1` (single isomer, unassigned) [Co. 5a], the values for the IC50 at full-length human Hpk1 and at Hpk1 were 10.2 nM and 776 nM, respectively. Turning to `Nc1ncc(-c2ccc(C3CCOCC3)c([C@@H]3CC4(CC4)CN3)c2)cc1-c1ccncc1` (single isomer, unassigned) [Co. 8a], the IC50 at full-length human Hpk1 is 6.31 nM; on Hpk1 it was 347 nM. On the same counts, the results for `Nc1ncc(-c2ccc(C3CCOCC3)c([C@H]3CC4(CC4)CN3)c2)cc1-c1ccncc1` (single isomer, unassigned) [Co. 8b] are 135 nM and 6920 nM.

Regarding `Nc1ncc(-c2ccc(C3CCOCC3)c([C@@H]3C[S@+]([O-])CCN3)c2)cc1-c1ccnc(F)c1` (single isomer, unassigned) [Co. 15b], the IC50 at full-length human Hpk1 was 200 nM; on Hpk1 it was more than 10000 nM. Consider `Nc1ncc(-c2ccc(C3CCOCC3)c([C@@H]3C[S@@+]([O-])CCN3)c2)cc1-c1ccnc(F)c1` (single isomer, unassigned) [Co. 15c], for which the IC50 on full-length human Hpk1 is 631 nM; at Hpk1 it was more than 10000 nM.

Regarding `Nc1ncc(-c2ccc(C3CCOCC3)c([C@H]3C[S@+]([O-])CCN3)c2)cc1-c1ccnc(F)c1` (single isomer, unassigned) [Co. 15d], the IC50 on full-length human Hpk1 was 6920 nM; on Hpk1 it was more than 10000 nM. As to `Nc1ncc(-c2ccc(C3CCOCC3)c([C@H]3CC(F)(F)CN3)c2)cc1-c1ccnc(F)c1` (single isomer, unassigned) [Co. 58], the IC50 is 8710 nM at full-length human Hpk1 and more than 10000 nM on Hpk1.

`Nc1ncc(-c2ccc(C3CCOCC3)c([C@@H]3CC(F)(F)CN3)c2)cc1-c1ccnc(F)c1` (single isomer, unassigned) [Co. 59]: the IC50 is 77.6 nM at full-length human Hpk1 and 5620 nM on Hpk1.

For `C[C@H]1COC[C@@H](c2cc(-c3cnc(N)c(-c4ccncc4)c3)ccc2C2CCOCC2)N1` (single isomer, unassigned) [Co. 83a], the IC50 on full-length human Hpk1 was 44.7 nM; on Hpk1, 1350 nM.

On to `C[C@@H]1COC[C@H](c2cc(-c3cnc(N)c(-c4ccncc4)c3)ccc2C2CCOCC2)N1` (single isomer, unassigned) [Co. 83b], for which the IC50 at full-length human Hpk1 is 5750 nM. As for `Nc1ncc(-c2ccc(C3CCOCC3)c([C@@H]3COCCCN3)c2)cc1-c1ccncc1` (single isomer, unassigned) [Co. 93a], the IC50 on full-length human Hpk1 is 162 nM; at Hpk1, 4570 nM. For `Nc1ncc(-c2ccc(C3CCOCC3)c([C@H]3COCCCN3)c2)cc1-c1ccncc1` (single isomer, unassigned) [Co. 93b], the IC50 is 18.6 nM at full-length human Hpk1 and 1230 nM on Hpk1. Take `Nc1ncc(-c2ccc([C@H]3CCOC3)c([C@@H]3CCCN3)c2)cc1-c1ccnc(F)c1` (single isomer, unassigned) [Co. 101]: the IC50 was 3.72 nM on full-length human Hpk1 and 692 nM at Hpk1.

For `Nc1ncc(-c2ccc(C3CCOCC3)c([C@@H]3CSCCN3)c2)cc1-c1ccnc(F)c1` (single isomer, unassigned) [Co. 103a], the IC50 was 7.76 nM on full-length human Hpk1 and 1950 nM on Hpk1. With `Nc1ncc(-c2ccc(C3CCOCC3)c([C@H]3CSCCN3)c2)cc1-c1ccnc(F)c1` (single isomer, unassigned) [Co. 103b], the IC50 at full-length human Hpk1 is 603 nM; on Hpk1, more than 10000 nM. `Nc1ncc(-c2ccc(C3CCOCC3)c([C@H]3CC4(CC4)CN3)c2)cc1-c1ccnc(F)c1` (single isomer, unassigned) [Compound 5b]: at full-length human Hpk1, the IC50 is 912 nM. On to `Nc1ncc(-c2ccc(C3CCOCC3)c([C@H]3C[S@@+]([O-])CCN3)c2)cc1-c1ccnc(F)c1` (single isomer, unassigned) [Compound 15a], for which the figures for the IC50 on full-length human Hpk1 and at Hpk1 were 9330 nM and more than 10000 nM, respectively. Turning to `Nc1ncc(-c2ccc(C3CCOCC3)c([C@@H]3CCCN3)c2)cc1-c1ccnc(F)c1` [Co. 1], the IC50 was 7.59 nM on full-length human Hpk1 and 380 nM at Hpk1. With `Nc1ncc(-c2ccc(N3CCOCC3)c([C@@H]3CCCN3)c2)cc1-c1ccnc(F)c1` [Co. 2], the IC50 was 41.7 nM on full-length human Hpk1 and 871 nM on Hpk1. For `Nc1ncc(-c2ccc(C3CCOCC3)c([C@@H]3CCCN3)c2)cc1-c1cncnc1` [Co. 3] the same measures were 53.7 nM and 5620 nM. Regarding `Nc1ncc(-c2ccc(C3CCOCC3)c([C@@H]3CCCN3)c2)cc1-c1cccnc1` [Co. 4], the IC50 is 42.7 nM at full-length human Hpk1 and 3720 nM at Hpk1.

For the molecule `Nc1ncc(-c2ccc(N3CCOCC3)c(C3CCCN3)n2)cc1-c1ccncc1` (centres unmarked) [Co. 11], the values for the IC50 at full-length human Hpk1 and at Hpk1 were 35.5 nM and 5010 nM, respectively. Take `Nc1ncc(-c2cnc(N3CCOCC3)c(C3CCCN3)c2)cc1-c1ccncc1` (centres unmarked) [Co. 12]: the IC50 was 112 nM on full-length human Hpk1 and 7410 nM at Hpk1. On to `Nc1ncc(-c2ccc(C3CCOCC3)c(-c3cnc[nH]3)c2)cc1-c1ccncc1` [Co. 13], for which the IC50 was 186 nM at full-length human Hpk1 and 8910 nM on Hpk1.

Regarding `Nc1ncc(-c2ccc(N3CCOCC3)c(-c3nnc[nH]3)c2)cc1-c1ccncc1` [Co. 14], the IC50 was 832 nM on full-length human Hpk1 and more than 10000 nM on Hpk1. As for `Nc1ncc(-c2ccc(C3CCOCC3)c(-c3cnn[nH]3)c2)cc1-c1ccncc1` [Co. 15], the IC50 at full-length human Hpk1 was 575 nM; at Hpk1 it was more than 10000 nM.

As for `Nc1ncc(-c2ccc(C3CCOCC3)c([C@@H]3CCCN3)c2)cc1-c1ccnc(Cl)c1` [Co. 17], the values for the IC50 on full-length human Hpk1 and on Hpk1 were 15.8 nM and 1580 nM, respectively.

As to `Nc1ncc(-c2ccc(C3CCOCC3)c([C@@H]3CCCN3)c2)cc1-c1cnn2c1CCCC2` [Co. 18], the figures for the IC50 at full-length human Hpk1 and on Hpk1 were 17.8 nM and 1550 nM, respectively. Take `CS(=O)(=O)n1cc(-c2cc(-c3ccc(C4CCOCC4)c([C@@H]4CCCN4)c3)cnc2N)cn1` [Co. 19]: the IC50 is 4.27 nM at full-length human Hpk1 and 977 nM on Hpk1. On the same counts, the results for `Nc1ncc(-c2ccc(C3CCOCC3)c([C@@H]3CCCN3)c2)cc1-c1nccs1` [Co. 20] are 3.16 nM and 170 nM.

As to `Nc1ncc(-c2ccc(C3CCOCC3)c([C@@H]3CCCN3)c2)cc1-c1cnn(CCO)c1` [Co. 21], the IC50 on full-length human Hpk1 was 18.6 nM; on Hpk1, 6920 nM. As for `CC(C)n1cc(-c2cc(-c3ccc(C4CCOCC4)c([C@@H]4CCCN4)c3)cnc2N)cn1` [Co. 22], the IC50 at full-length human Hpk1 is 2.75 nM; on Hpk1, 339 nM.

Regarding `Nc1ncc(-c2ccc(C3CCOCC3)c([C@@H]3CCCN3)c2)cc1-c1cn[nH]c1` [Co. 23], the IC50 is 1.02 nM on full-length human Hpk1 and 302 nM on Hpk1. For `COc1cnccc1-c1cc(-c2ccc(C3CCOCC3)c([C@@H]3CCCN3)c2)cnc1N` [Co. 24] the same measures were 13.2 nM and 891 nM. With `Nc1ncc(-c2ccc(C3CCOCC3)c([C@@H]3CCCN3)c2)cc1-c1ccncc1` [Co. 25], the values for the IC50 at full-length human Hpk1 and at Hpk1 were 9.77 nM and 427 nM, respectively. Consider `Nc1ncc(-c2ccc(C3CCOCC3)c([C@H]3CCCN3)c2)cc1-c1ccncc1` [Co. 25b], for which the IC50 at full-length human Hpk1 is 955 nM; at Hpk1 it was more than 10000 nM. On to `Nc1ncc(-c2ccc(C3CCOCC3)c([C@@H]3CCCN3)c2)cc1-c1ccncn1` [Co. 26], for which the IC50 on full-length human Hpk1 is 2.04 nM; on Hpk1, 245 nM.

For `Nc1ncc(-c2ccc(C3CCOCC3)c([C@@H]3CCCN3)c2)cc1-c1ccnc(F)c1F` [Co. 27], the IC50 at full-length human Hpk1 is 5.75 nM; on Hpk1, 240 nM. For the molecule `Cc1cnccc1-c1cc(-c2ccc(C3CCOCC3)c(CN(C)C)c2)cnc1N` [Co. 69], the IC50 at full-length human Hpk1 is 316 nM. Turning to `Nc1ncc(-c2ccc(C3CCOCC3)c(CN3CCC(F)(F)C3)c2)cc1-c1ccncc1` [Co. 107], the IC50 on full-length human Hpk1 was 832 nM.

(Values after patent US12492194B2, “HPK1 inhibitors” (Janssen Pharmaceutica NV, priority 2019, dated 2025).)
